We go through five compounds from patent US4567165A, “N-Methanesulfonic acid derivatives of 3-demethoxyistamycin B” (Zaidan Hojin Biseibutsu Kagaku Kenkyu Kai, priority 1984, dated 1986).

For series [1], the system named is Escherichia coli JR66/W677. Kind of series: Minimum inhibitory concentration, standard serial dilution method on Mueller-Hinton agar. Type of series: cell-based. The following applies: 37° C., 17 hours. An excerpt:
(§1) Minimum inhibitory concentrations (mcg/ml) of the parent 3-demethoxyistamycin B were also estimated in the same manner for the comparison purpose and also are shown in Table 1.

Series [2] deals with Pseudomonas aeruginosa A3. The series is described as above. The note with it: 37° C., 17 hours. It counts as cell-based.
Source text: as §1

Series [3] concerns Staphylococcus aureus Ap01. The series is described as above. It counts as cell-based. The following applies: 37° C., 17 hours.
Source text: as §1

In a further series the test system is Serratia marcescens. The description is as above. The following applies: 37° C., 17 hours. Type of series: cell-based.
Source text: as §1

Series [4] concerns Escherichia coli K-12 C600 R135. Described as above. The note with it: 17 hours; for Minimum Inhibitory concentration: 37° C. It counts as cell-based.
Source text: as §1

Series [5] deals with Pseudomonas aeruginosa H9. The series is described as above. The following applies: 37° C., 17 hours. It counts as cell-based.
Source text: as §1

For series [6], the system named is Pseudomonas aeruginosa TI-13. The series is described as above. It counts as cell-based. The note with it: 17 hours; for Minimum Inhibitory concentration: 37° C.
Source text: as §1

Series [7] concerns Pseudomonas aeruginosa GN315. The description is as above. Type of series: cell-based. The note with it: 37° C., 17 hours.
Source text: as §1

In series [8] the test system is Staphylococcus aureus 209P. Described as above. Type of series: cell-based. The following applies: for Minimum Inhibitory concentration: Staphylococcus aureus 209P, Mueller-Hinton agar, 37° C., 17 hours.
Source text: as §1

Another series deals with Providencia Pv 16. The series is described as above. It counts as cell-based. The following applies: 17 hours; for Minimum Inhibitory concentration: 37° C.
Source text: as §1

Series [9] relates to Escherichia coli K-12 ML1629. Described as above. Type of series: cell-based. The note with it: K12ML1629, 37° C., 17 hours.
Source text: as §1

Another series concerns Escherichia coli K-12. The series is described as above. It counts as cell-based. The note with it: K12, 37° C., 17 hours.
Source text: as §1

For another series, the system named is Escherichia coli JR225. The series is described as above. It counts as cell-based. The following applies: JR225, 17 h, read-out: Minimum Inhibitory concentration.
Source text: as §1

Series [10] deals with Escherichia coli K-12 LA290 R55. The description is as above. Type of series: cell-based. The following applies: K12LA290R55, 17 h, read-out: Minimum Inhibitory concentration.
Source text: as §1

The next series deals with Escherichia coli K-12 R5. The series is described as above. Type of series: cell-based. The note with it: K12R5, 17 h, read-out: Minimum Inhibitory concentration.
Source text: as §1

Series [11] in a line: Acute toxicity, intravenous, in mice. The note with it: mouse, in vivo, mice (ICR, adult female), single administration in saline. Here is the method: Acute toxicity of the various N-methanesulfonic acid derivatives of 3-demethoxyistamycin B of the invention has been determined by the following procedure:
A test compound or substance was dissolved in 0.25 ml of a physiological saline solution and the solution of the test compound or substance so prepared was intravenously administered into a series of mouse groups each consisting of six mice (ICR strain, adult female, body weight 20 g±0.5 g) as the test animal, so that the test compound or substance was given to each mouse. Acute toxicity of 3-demethoxyistamycin B was also estimated in the same manner as above for the comparison purpose.

Values after ≈ are worked out from the molar mass of the structure shown. A value given as a limit tells only on which side of the number the result lay.

As for “3-demethoxyistamycin B-di-N-methanesulfonicacid sodium salt [Compound (2)]”, the “Minimum Inhibitory concentration” value in [1] was 3.13 µg/mL; in series [2] it was 0.78 µg/mL; in series [3], 0.78 µg/mL; in the series on Serratia marcescens, 3.13 µg/mL; in series [4], 6.25 µg/mL; in series [5], 50 µg/mL. The “Minimum Inhibitory concentration” value was determined as 25 µg/mL in [6], 100 µg/mL in series [7], 0.78 µg/mL in series [8] and 1.56 µg/mL with Providencia Pv 16.
On to “3-demethoxyistamycin B-mono-N-methanesulfonic acid sodium salt [Compound (1)]”, for which the “Minimum Inhibitory concentration” value in series [4] was 6.25 µg/mL; in series [5], 50 µg/mL; in series [6] it was 25 µg/mL; in series [7], 100 µg/mL.
On to “3-demethoxyistamycin B-tetra-N-methanesulfonic acid sodium salt [Compound (4)]”, for which the “Minimum Inhibitory concentration” value in [1] is 6.25 µg/mL; in series [3], 1.56 µg/mL; in the series on Serratia marcescens it was 3.13 µg/mL; in series [5] it was 50 µg/mL; in the series with Providencia Pv 16, 1.56 µg/mL.
As to “3-demethoxyistamycin B-tri-N-methanesulfonic acid sodium salt [Compound (3)]”, the “Minimum Inhibitory concentration” value in series [1] was determined as 3.13 µg/mL; in series [3], 0.78 µg/mL; in the series with Serratia marcescens, 6.25 µg/mL; in series [5], 50 µg/mL; in series [6], 25 µg/mL; in series [7] it was 50 µg/mL. Besides, in series [8], the “Minimum Inhibitory concentration” value came out at 1.56 µg/mL.
Turning to `CNCC1CCC(N)C(OC2C(N)CCC(N(C)C(=O)CN)C2O)O1` (stereo not drawn) [3-Demethoxyistamycin B], the MIC is 0.78 µg/mL (≈ 2.17 µM) in series [1]; 0.78 µg/mL (≈ 2.17 µM) in series [9]; 0.39 µg/mL (≈ 1.08 µM) in series [2]; 0.39 µg/mL (≈ 1.08 µM) in series [3]; 0.78 µg/mL (≈ 2.17 µM) against Serratia marcescens; 0.78 µg/mL (≈ 2.17 µM) in [4] (K12C600R135, 37° C.). The MIC worked out at 0.78 µg/mL (≈ 2.17 µM) against Escherichia coli K-12; 0.78 µg/mL (≈ 2.17 µM) in the series with Escherichia coli JR225; 1.56 µg/mL (≈ 4.34 µM) in series [10]; 12.5 µg/mL (≈ 34.8 µM) in series [5]; 1.56 µg/mL (≈ 4.34 µM) in the series with Escherichia coli K-12 R5; 6.25 µg/mL (≈ 17.4 µM) in [6] (TI13, 37° C.). Also, the MIC in [7] was 6.25 µg/mL (≈ 17.4 µM); in series [8] (Staphylococcus aureus, 209P, 17 h, read-out: Minimum Inhibitory concentration) it was below 0.2 µg/mL; against Providencia Pv 16 (PV16, 37° C.), 0.78 µg/mL (≈ 2.17 µM). Moreover, the LD50 – broadly, the dose expected to kill half of the subjects tested – in series [11] was 100 to 200 mg/kg.
